Test results: article PMC5218480 (PLoS ONE, 2017)

System: MV-4-11 cells
Experiment: Gene expression microarray analysis (Affymetrix PrimeView) and GSEA
Format: cell-based, human
Set-up: RFU PODN (11730768_x_at) / Fold change /veh PODN (11730768_x_at) / RFU LINC00158 (11744669_a_at) / Fold change /veh LINC00158 (11744669_a_at) / RFU DUSP10 (11751237_a_at) / Fold change /veh DUSP10 (11751237_a_at) / RFU ID3 (11757404_x_at) / Fold change /veh ID3 (11757404_x_at) / RFU PLEKHG5 (11737974_s_at) / Fold change /veh PLEKHG5 (11737974_s_at) / RFU LRRC4B (11730491_at) / Fold change /veh LRRC4B (11730491_at) / RFU GIMAP4 (11747438_a_at) / Fold change /veh GIMAP4 (11747438_a_at) / RFU KRT8 (11758183_x_at) / Fold change /veh KRT8 (11758183_x_at) / RFU CNN1 (11734310_a_at) / Fold change /veh CNN1 (11734310_a_at) / RFU VPS37D (11726825_at) / Fold change /veh VPS37D (11726825_at) / RFU C10orf10 (11716522_x_at) / Fold change /veh C10orf10 (11716522_x_at) / RFU KIR2DL2 /// KIR2DL4 /// KIR2DL5A /// KIR2DL5B /// KIR2DS1 /// KIR2DS2 /// KIR2DS3 /// KIR2DS4 /// KIR3DL3 /// KIR3DL3 /// KIR3DS1 (11738374_at) / Fold change /veh KIR2DL2 /// KIR2DL4 /// KIR2DL5A /// KIR2DL5B /// KIR2DS1 /// KIR2DS2 /// KIR2DS3 /// KIR2DS4 /// KIR3DL3 /// KIR3DL3 /// KIR3DS1 (11738374_at) / RFU C1QL1 (11718748_at) / Fold change /veh C1QL1 (11718748_at) / RFU TMPRSS4 (11747572_a_at) / Fold change /veh TMPRSS4 (11747572_a_at) / RFU HAMP (11756126_x_at) / Fold change /veh HAMP (11756126_x_at) / RFU RNFT2 (11725882_a_at) / Fold change /veh RNFT2 (11725882_a_at) / RFU NR4A2 (11747474_a_at) / Fold change /veh NR4A2 (11747474_a_at) / RFU ABCC12 (11746883_a_at) / Fold change /veh ABCC12 (11746883_a_at) / RFU TMEM136 (11760407_x_at) / Fold change /veh TMEM136 (11760407_x_at) / RFU CLDN22 /// WWC2 (11732394_at) / Fold change /veh CLDN22 /// WWC2 (11732394_at) / RFU HLA-DPB1 (11760878_x_at) / Fold change /veh HLA-DPB1 (11760878_x_at) / RFU SPINT1 (11716480_a_at) / Fold change /veh SPINT1 (11716480_a_at) / RFU GAP43 (11754022_s_at) / Fold change /veh GAP43 (11754022_s_at) / RFU A4GNT (11735810_at) / Fold change /veh A4GNT (11735810_at) / RFU PRB3 (11715151_x_at) / Fold change /veh PRB3 (11715151_x_at) / RFU TUBB4B (11761932_at) / Fold change /veh TUBB4B (11761932_at) / RFU CAPN14 (11732068_a_at) / Fold change /veh CAPN14 (11732068_a_at) / RFU TMCC2 (11721928_a_at) / Fold change /veh TMCC2 (11721928_a_at) / RFU IRGQ (11745062_a_at) / Fold change /veh IRGQ (11745062_a_at) / RFU FAM174B (11720279_a_at) / Fold change /veh FAM174B (11720279_a_at) / RFU TMPRSS4 (11748680_a_at) / Fold change /veh TMPRSS4 (11748680_a_at) / RFU FAM212B (11763350_a_at) / Fold change /veh FAM212B (11763350_a_at) / RFU PLEKHG5 (11743358_a_at) / Fold change /veh PLEKHG5 (11743358_a_at) / RFU ZSCAN30 (11745921_a_at) / Fold change /veh ZSCAN30 (11745921_a_at) / RFU CMKLR1 (11741424_a_at) / Fold change /veh CMKLR1 (11741424_a_at) / RFU LOC101060620 /// MAPK8IP1 (11723275_at) / Fold change /veh LOC101060620 /// MAPK8IP1 (11723275_at) / RFU SPTSSB (11747773_x_at) / Fold change /veh SPTSSB (11747773_x_at) / RFU PRSS12 (11739890_at) / Fold change /veh PRSS12 (11739890_at) / RFU BIN1 (11741810_x_at) / Fold change /veh BIN1 (11741810_x_at) / RFU WNT11 (11732464_a_at) / Fold change /veh WNT11 (11732464_a_at) / RFU C10orf10 (11716521_a_at) / Fold change /veh C10orf10 (11716521_a_at) / RFU C5orf56 (11738089_at) / Fold change /veh C5orf56 (11738089_at) / RFU CYB561 (11721691_x_at) / Fold change /veh CYB561 (11721691_x_at) / RFU ANKRD19P (11752326_a_at) / Fold change /veh ANKRD19P (11752326_a_at) / RFU OR2T12 /// OR2T33 /// OR2T8 (11738714_s_at) / Fold change /veh OR2T12 /// OR2T33 /// OR2T8 (11738714_s_at) / RFU VCAN (11748164_a_at) / Fold change /veh VCAN (11748164_a_at) / RFU JSRP1 (11732532_at) / Fold change /veh JSRP1 (11732532_at) / RFU KRTAP10-11 (11738290_x_at) / Fold change /veh KRTAP10-11 (11738290_x_at) / RFU MYO3A (11730013_a_at) / Fold change /veh MYO3A (11730013_a_at) / RFU EBF3 (11725865_a_at) / Fold change /veh EBF3 (11725865_a_at) / RFU CAMK2N1 (11719241_x_at) / Fold change /veh CAMK2N1 (11719241_x_at) / RFU C5orf56 (11738088_a_at) / Fold change /veh C5orf56 (11738088_a_at) / RFU OLFML3 (11715873_a_at) / Fold change /veh OLFML3 (11715873_a_at) / RFU LOC100653217 /// NTM (11731650_a_at) / Fold change /veh LOC100653217 /// NTM (11731650_a_at) / RFU MAPK11 (11762145_a_at) / Fold change /veh MAPK11 (11762145_a_at) / RFU FIZ1 (11724087_x_at) / Fold change /veh FIZ1 (11724087_x_at) / RFU OASL (11726364_x_at) / Fold change /veh OASL (11726364_x_at) / RFU SOX15 (11748057_x_at) / Fold change /veh SOX15 (11748057_x_at) / RFU CD79A (11719716_a_at) / Fold change /veh CD79A (11719716_a_at) / RFU HIST1H1D (11736915_at) / Fold change /veh HIST1H1D (11736915_at) / RFU CASKIN2 (11723855_a_at) / Fold change /veh CASKIN2 (11723855_a_at) / RFU LOC730098 (11760151_x_at) / Fold change /veh LOC730098 (11760151_x_at) / RFU OR4N2 (11742367_at) / Fold change /veh OR4N2 (11742367_at) / RFU PRRT2 (11749266_a_at) / Fold change /veh PRRT2 (11749266_a_at) / RFU SNX32 (11753110_a_at) / Fold change /veh SNX32 (11753110_a_at) / RFU CDHR5 (11726645_a_at) / Fold change /veh CDHR5 (11726645_a_at) / RFU RCAN1 (11760418_a_at) / Fold change /veh RCAN1 (11760418_a_at) / RFU FAM167A (11723789_a_at) / Fold change /veh FAM167A (11723789_a_at) / RFU FAM26E (11764081_at) / Fold change /veh FAM26E (11764081_at) / RFU ISYNA1 (11749810_s_at) / Fold change /veh ISYNA1 (11749810_s_at) / RFU ACY1 (11761880_at) / Fold change /veh ACY1 (11761880_at) / RFU 11764098_at / Fold change /veh 11764098_at / RFU SAMD14 (11745864_x_at) / Fold change /veh SAMD14 (11745864_x_at) / RFU NPB (11741838_a_at) / Fold change /veh NPB (11741838_a_at) / RFU TMPRSS6 (11731388_a_at) / Fold change /veh TMPRSS6 (11731388_a_at) / RFU KRTAP10-2 (11738614_at) / Fold change /veh KRTAP10-2 (11738614_at) / RFU ARHGAP8 /// PRR5-ARHGAP8 (11727945_x_at) / Fold change /veh ARHGAP8 /// PRR5-ARHGAP8 (11727945_x_at) / RFU KRTAP5-7 /// NADSYN1 (11734609_at) / Fold change /veh KRTAP5-7 /// NADSYN1 (11734609_at) / RFU RASL12 (11751679_a_at) / Fold change /veh RASL12 (11751679_a_at) / RFU CDKN2B (11736163_a_at) / Fold change /veh CDKN2B (11736163_a_at) / RFU PRF1 (11729649_at) / Fold change /veh PRF1 (11729649_at) / RFU, ZNF638 /// ZNF638-IT1 / Fold change vs veh, ZNF638 /// ZNF638-IT1 / RFU, PANK3 / Fold change vs veh, PANK3 / RFU, SH3YL1 / Fold change vs veh, SH3YL1 / RFU, ZEB2 / Fold change vs veh, ZEB2 / RFU, NRIP1 / Fold change vs veh, NRIP1 / RFU, PTTG1IP / Fold change vs veh, PTTG1IP / RFU, CAPN2 / Fold change vs veh, CAPN2 / RFU, MED14 / Fold change vs veh, MED14 / RFU, SNORA58 / Fold change vs veh, SNORA58 / RFU, C1orf63 / Fold change vs veh, C1orf63 / RFU, LRRFIP1 / Fold change vs veh, LRRFIP1 / RFU, NDUFAF7 / Fold change vs veh, NDUFAF7 / RFU, SLC12A2 / Fold change vs veh, SLC12A2 / RFU, IBTK / Fold change vs veh, IBTK / RFU, ESF1 / Fold change vs veh, ESF1 / Fold change vs veh, TMEM50B / RFU, TAOK1 / Fold change vs veh, TAOK1 / RFU, ACBD3 / Fold change vs veh, ACBD3 / RFU, TMA16 / Fold change vs veh, TMA16 / RFU, RWDD3 / Fold change vs veh, RWDD3 / RFU, BCAT1 / Fold change vs veh, BCAT1 / RFU, EDEM3 / Fold change vs veh, EDEM3 / RFU, TMEM33 / Fold change vs veh, TMEM33 / RFU, WDR75 / Fold change vs veh, WDR75 / RFU, AHCTF1 / Fold change vs veh, AHCTF1 / RFU, TFRC / Fold change vs veh, TFRC / RFU, ZDHHC17 / Fold change vs veh, ZDHHC17 / RFU, NOM1 / Fold change vs veh, NOM1 / RFU, ARL8B / Fold change vs veh, ARL8B / RFU, ZBTB11 / Fold change vs veh, ZBTB11 / RFU, TAMM41 / Fold change vs veh, TAMM41 / RFU, KIAA1704 /// LOC100996395 / Fold change vs veh, KIAA1704 /// LOC100996395 / RFU, ING1 / Fold change vs veh, ING1 / RFU, TRMT61B / Fold change vs veh, TRMT61B / RFU, FUBP3 / Fold change vs veh, FUBP3 / RFU, TP53 / Fold change vs veh, TP53 / RFU, TNKS2 / Fold change vs veh, TNKS2 / RFU, ZFP14 / Fold change vs veh, ZFP14 / RFU, ACTR2 / Fold change vs veh, ACTR2 / RFU, PPP3R1 / Fold change vs veh, PPP3R1 / RFU, PIK3R1 / Fold change vs veh, PIK3R1 / RFU, HNRNPA1 / Fold change vs veh, HNRNPA1 / RFU, RNF170 / Fold change vs veh, RNF170 / RFU, ZNF28 / Fold change vs veh, ZNF28 / RFU, RNGTT / Fold change vs veh, RNGTT / RFU, OGT / Fold change vs veh, OGT / RFU, BRD1 / Fold change vs veh, BRD1 / RFU, MARS / Fold change vs veh, MARS / RFU, ZNF655 / Fold change vs veh, ZNF655 / RFU, FAHD1 / Fold change vs veh, FAHD1 / RFU, BDP1 / Fold change vs veh, BDP1 / RFU, LRRCC1 / Fold change vs veh, LRRCC1 / RFU, ARID1A / Fold change vs veh, ARID1A / RFU, ZNF146 / Fold change vs veh, ZNF146 / RFU, ZNF330 / Fold change vs veh, ZNF330 / RFU, GPN3 / Fold change vs veh, GPN3 / RFU, C9orf123 / Fold change vs veh, C9orf123 / RFU, N4BP2L2 / Fold change vs veh, N4BP2L2 / RFU, ARFIP1 / Fold change vs veh, ARFIP1 / RFU, FAM179B / Fold change vs veh, FAM179B / RFU, BCL10 / Fold change vs veh, BCL10 / RFU, UHRF1BP1L / Fold change vs veh, UHRF1BP1L / RFU, BET1 / Fold change vs veh, BET1 / RFU, CNOT2 / Fold change vs veh, CNOT2 / RFU, ZNF268 / Fold change vs veh, ZNF268 / Fold change vs veh, ZNF507 / RFU, DGCR2 / Fold change vs veh, DGCR2 / RFU, WDSUB1 / Fold change vs veh, WDSUB1 / Fold change vs veh, HSP90B1 /// MIR3652 / RFU, ADSS / Fold change vs veh, ADSS / RFU, GK / Fold change vs veh, GK / RFU, ZNF148 / Fold change vs veh, ZNF148 / RFU, TAF9 / Fold change vs veh, TAF9 / RFU, SLC1A5 / Fold change vs veh, SLC1A5 / RFU, SLMO2 / Fold change vs veh, SLMO2 / RFU, ABCC4 / Fold change vs veh, ABCC4 / RFU, LOC101060439 /// RAP1B / Fold change vs veh, LOC101060439 /// RAP1B / RFU, RFX7 / Fold change vs veh, RFX7 / RFU, GTPBP10 / Fold change vs veh, GTPBP10 / RFU, CNEP1R1 / Fold change vs veh, CNEP1R1 / RFU, BIVM-ERCC5 /// ERCC5 / Fold change vs veh, BIVM-ERCC5 /// ERCC5 / RFU, ILF3 / Fold change vs veh, ILF3 / RFU 11762660_at / Fold change /veh 11762660_at / RFU VCAN (11757783_s_at) / Fold change /veh VCAN (11757783_s_at) / RFU DDX43 (11728927_at) / Fold change /veh DDX43 (11728927_at) / RFU KRT8 (11758188_x_at) / Fold change /veh KRT8 (11758188_x_at) / RFU NKD1 (11759106_at) / Fold change /veh NKD1 (11759106_at) / RFU SRD5A1 (11742802_a_at) / Fold change /veh SRD5A1 (11742802_a_at) / RFU TPSAB1 /// TPSB2 (11721975_s_at) / Fold change /veh TPSAB1 /// TPSB2 (11721975_s_at) / RFU GSTM3 (11746129_a_at) / Fold change /veh GSTM3 (11746129_a_at) / RFU IL23R (11737362_x_at) / Fold change /veh IL23R (11737362_x_at) / RFU TMEM51 (11727254_a_at) / Fold change /veh TMEM51 (11727254_a_at) / RFU PIWIL2 (11732686_x_at) / Fold change /veh PIWIL2 (11732686_x_at) / RFU ORM1 (11744905_x_at) / Fold change /veh ORM1 (11744905_x_at) / RFU CCDC152 (11743942_at) / Fold change /veh CCDC152 (11743942_at) / RFU ECM1 (11717891_a_at) / Fold change /veh ECM1 (11717891_a_at) / RFU IL23R (11748794_a_at) / Fold change /veh IL23R (11748794_a_at) / RFU TNFAIP8L3 (11732012_x_at) / Fold change /veh TNFAIP8L3 (11732012_x_at) / RFU MBOAT4 (11741988_at) / Fold change /veh MBOAT4 (11741988_at) / RFU 11764193_at / Fold change /veh 11764193_at / RFU TMEM53 (11763286_at) / Fold change /veh TMEM53 (11763286_at) / RFU MAGEB2 (11727129_at) / Fold change /veh MAGEB2 (11727129_at) / RFU TMEM200A (11744735_a_at) / Fold change /veh TMEM200A (11744735_a_at) / RFU CCDC152 (11751479_a_at) / Fold change /veh CCDC152 (11751479_a_at) / RFU FAM211A (11726209_a_at) / Fold change /veh FAM211A (11726209_a_at) / RFU RGS16 (11746705_a_at) / Fold change /veh RGS16 (11746705_a_at) / RFU VCAN (11755009_s_at) / Fold change /veh VCAN (11755009_s_at) / RFU RHOB (11743442_s_at) / Fold change /veh RHOB (11743442_s_at) / RFU RGS16 (11720943_a_at) / Fold change /veh RGS16 (11720943_a_at) / RFU RGS16 (11720944_at) / Fold change /veh RGS16 (11720944_at) / RFU, VPS4B / Fold change vs veh, VPS4B / RFU, CREB1 / Fold change vs veh, CREB1 / RFU, DNAJC13 / Fold change vs veh, DNAJC13 / RFU, GNAQ / Fold change vs veh, GNAQ / RFU, CDK5R1 / Fold change vs veh, CDK5R1 / RFU, ZRANB3 / Fold change vs veh, ZRANB3 / RFU, CUL4A / Fold change vs veh, CUL4A / RFU, CCNY / Fold change vs veh, CCNY / RFU, UFL1 / Fold change vs veh, UFL1 / RFU, COG3 / Fold change vs veh, COG3 / RFU, DIAPH2 / Fold change vs veh, DIAPH2 / RFU, SKA2 / Fold change vs veh, SKA2 / RFU, AFF3 / Fold change vs veh, AFF3 / RFU, LMF1 / Fold change vs veh, LMF1 / RFU, IPO11 / Fold change vs veh, IPO11 / RFU, DFFB / Fold change vs veh, DFFB / RFU, FOXP1 / Fold change vs veh, FOXP1 / RFU, CARD8 / Fold change vs veh, CARD8 / RFU, STRN3 / Fold change vs veh, STRN3 / RFU, ADK / Fold change vs veh, ADK / RFU, RASSF2 / Fold change vs veh, RASSF2 / RFU, WIPF1 / Fold change vs veh, WIPF1 / RFU, LARP1B / Fold change vs veh, LARP1B / RFU, RASA1 / Fold change vs veh, RASA1 / RFU, RB1 / Fold change vs veh, RB1 / RFU, PPFIA1 / Fold change vs veh, PPFIA1 / RFU, MAT2A / Fold change vs veh, MAT2A / RFU, CCT5 / Fold change vs veh, CCT5 / RFU, WDR92 / Fold change vs veh, WDR92 / RFU, CUX1 / Fold change vs veh, CUX1 / RFU, TTC7A / Fold change vs veh, TTC7A / RFU, TMEM135 / Fold change vs veh, TMEM135 / RFU, DEPTOR / Fold change vs veh, DEPTOR / RFU, CPM / Fold change vs veh, CPM / RFU, DNAJB6 / Fold change vs veh, DNAJB6 / RFU, CACNA2D3 / Fold change vs veh, CACNA2D3 / RFU, DTX4 / Fold change vs veh, DTX4 / RFU, TFCP2 / Fold change vs veh, TFCP2 / RFU, GMCL1 /// GMCL1P1 / Fold change vs veh, GMCL1 /// GMCL1P1 / RFU, AEBP2 / Fold change vs veh, AEBP2 / RFU, SNHG1 /// SNORD22 /// SNORD25 /// SNORD26 /// SNORD27 /// SNORD28 /// SNORD29 /// SNORD31 / Fold change vs veh, SNHG1 /// SNORD22 /// SNORD25 /// SNORD26 /// SNORD27 /// SNORD28 /// SNORD29 /// SNORD31 / Fold change (Aza/veh), C12orf56 (ProbeSet 11735607_a_at) / Fold change (ACY-1035/veh), C12orf56 (ProbeSet 11735607_a_at) / Fold change (Aza/veh), FGFR1OP (ProbeSet 11751329_s_at) / Fold change (ACY-1035/veh), FGFR1OP (ProbeSet 11751329_s_at) / Fold change (Aza/veh), VPS36 (ProbeSet 11739960_a_at) / Fold change (ACY-1035/veh), VPS36 (ProbeSet 11739960_a_at) / RFU SYPL1 (11715823_x_at) / Fold change /veh SYPL1 (11715823_x_at) / RFU IGFBP7 (11715501_s_at) / Fold change /veh IGFBP7 (11715501_s_at) / RFU REEP3 (11722064_at) / Fold change /veh REEP3 (11722064_at) / RFU IGLL1 (11728026_x_at) / Fold change /veh IGLL1 (11728026_x_at): dose or concentration left out as unconfirmed
Details: MV-4-11 cells, 48 hours

How did the “Fold change /veh LOC100653217 /// NTM (11731650_a_at)” value turn out when `Nc1ccc(-c2cccs2)cc1NC(=O)c1ccc2c(c1)cc(C1CC1)n2CCN1CCOCC1` [ACY-1035] was run?
The value was 0.99.
